Reference: PubChem BioAssay AID2060904 (Molecular Pharmacology Branch, DTP, NCI, 2025)

Tested on: 349418-098-R-PDC complex spheroid viability
Experiment: Anticancer human tumor 349418-098-R-PDC patient-derived lung adenocarcinoma cell line growth inhibition [RAS]
Settings: for IC50: curve of first compound; for viability, T/C: stronger effect = lower value; active means viability on the fitted dose curve at most 10% of control; inactive means the rest
Summary of the method: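 Agents were tested in combination matrices in half-log decrements from a top concentration at or near clinical Cmax (10 microM if undetermined). Targets were multi-cell spheroids of tumour lines plus HUVEC and MSC stromal cells.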
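Further: spheroids exposed to compound for seven days before viability readout.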

CCc1c2c(nc3ccc(O)cc13)-c1cc3c(c(=O)n1C2)COC(=O)[C@]3(O)CC + CCn1c(-c2cc(N3CCN(C)CC3)cnc2C(C)OC)c2c3cc(ccc31)-c1csc(n1)CC(NC(=O)C1CC1C)C(=O)N1CCCC(N1)C(=O)OCC(C)(C)C2
2.31 nM: IC50 (second compound 0.03 µM)
3.33 nM: IC50 (second compound 0.00949 µM)
2.42 nM: IC50 (second compound 0.3 µM)
2.48 nM: IC50 (second compound 0.000949 µM)
2.46 nM: IC50 (second compound 0.003 µM)
inactive: viability, T/C (second compound 0.000949 µM, first compound 0.000949 µM) 88% | viability, T/C (second compound 0.000949 µM, first compound 0.003 µM) 42.6% | viability, T/C (second compound 0.000949 µM, first compound 0.00949 µM) 12.3% | viability, T/C (second compound 0.003 µM, first compound 0.000949 µM) 80.7% | viability, T/C (second compound 0.003 µM, first compound 0.003 µM) 43.8% | viability, T/C (second compound 0.003 µM, first compound 0.00949 µM) 13.4% | viability, T/C (second compound 0.00949 µM, first compound 0.000949 µM) 84.5% | viability, T/C (second compound 0.00949 µM, first compound 0.003 µM) 53.7% | viability, T/C (second compound 0.00949 µM, first compound 0.00949 µM) 13.5% | viability, T/C (second compound 0.03 µM, first compound 0.000949 µM) 90.9% | viability, T/C (second compound 0.03 µM, first compound 0.003 µM) 38% | viability, T/C (second compound 0.03 µM, first compound 0.00949 µM) 11.6% | viability, T/C (second compound 0.0949 µM, first compound 0.000949 µM) 88.9% | viability, T/C (second compound 0.0949 µM, first compound 0.003 µM) 47.3% | viability, T/C (second compound 0.0949 µM, first compound 0.00949 µM) 17.3% | viability, T/C (second compound 0.3 µM, first compound 0.000949 µM) 87.1% | viability, T/C (second compound 0.3 µM, first compound 0.003 µM) 41% | viability, T/C (second compound 0.3 µM, first compound 0.00949 µM) 19.7%
active: viability, T/C (second compound 0.000949 µM, first compound 0.03 µM) 6.15% | viability, T/C (second compound 0.000949 µM, first compound 0.0949 µM) 2.77% | viability, T/C (second compound 0.000949 µM, first compound 0.3 µM) 1.87% | viability, T/C (second compound 0.003 µM, first compound 0.03 µM) 5.78% | viability, T/C (second compound 0.003 µM, first compound 0.0949 µM) 2.15% | viability, T/C (second compound 0.003 µM, first compound 0.3 µM) 1.76% | viability, T/C (second compound 0.00949 µM, first compound 0.03 µM) 6.16% | viability, T/C (second compound 0.00949 µM, first compound 0.0949 µM) 3.17% | viability, T/C (second compound 0.00949 µM, first compound 0.3 µM) 1.91% | viability, T/C (second compound 0.03 µM, first compound 0.03 µM) 5.22% | viability, T/C (second compound 0.03 µM, first compound 0.0949 µM) 2.72% | viability, T/C (second compound 0.03 µM, first compound 0.3 µM) 2.61% | viability, T/C (second compound 0.0949 µM, first compound 0.03 µM) 6.18% | viability, T/C (second compound 0.0949 µM, first compound 0.0949 µM) 2.99% | viability, T/C (second compound 0.0949 µM, first compound 0.3 µM) 1.97% | viability, T/C (second compound 0.3 µM, first compound 0.03 µM) 7.26% | viability, T/C (second compound 0.3 µM, first compound 0.0949 µM) 3.82% | viability, T/C (second compound 0.3 µM, first compound 0.3 µM) 1.95%
2.78 nM: IC50 (second compound 0.0949 µM)

Nc1ccn(C2OC(CO)C(O)C2(F)F)c(=O)n1 (stereo unspecified) + CCn1c(-c2cccnc2C(C)OC)c2c3cc(ccc31)N1CCOC(CC(NC(=O)C(C(C)C)N(C)C(=O)C3(F)CCN(C(=O)C#CC(C)(C)N(C)C)CC3)C(=O)N3CCCC(N3)C(=O)OCC(C)(C)C2)C1
inactive: viability, T/C (second compound 0.000949 µM, first compound 0.00316 µM) 23.6% | viability, T/C (second compound 0.003 µM, first compound 0.00316 µM) 22% | viability, T/C (second compound 0.00949 µM, first compound 0.00316 µM) 20.5% | viability, T/C (second compound 0.03 µM, first compound 0.00316 µM) 19.7% | viability, T/C (second compound 0.0949 µM, first compound 0.00316 µM) 19.9% | viability, T/C (second compound 0.3 µM, first compound 0.00316 µM) 16.6%
active: viability, T/C (second compound 0.000949 µM, first compound 0.01 µM) 7.06% | viability, T/C (second compound 0.000949 µM, first compound 0.0316 µM) 5.46% | viability, T/C (second compound 0.000949 µM, first compound 0.1 µM) 4.18% | viability, T/C (second compound 0.000949 µM, first compound 0.316 µM) 4.47% | viability, T/C (second compound 0.000949 µM, first compound 1 µM) 3.97% | viability, T/C (second compound 0.003 µM, first compound 0.01 µM) 6.17% | viability, T/C (second compound 0.003 µM, first compound 0.0316 µM) 5.46% | viability, T/C (second compound 0.003 µM, first compound 0.1 µM) 5.26% | viability, T/C (second compound 0.003 µM, first compound 0.316 µM) 4.96% | viability, T/C (second compound 0.003 µM, first compound 1 µM) 4.2% | viability, T/C (second compound 0.00949 µM, first compound 0.01 µM) 8.01% | viability, T/C (second compound 0.00949 µM, first compound 0.0316 µM) 5.62% | viability, T/C (second compound 0.00949 µM, first compound 0.1 µM) 4.89% | viability, T/C (second compound 0.00949 µM, first compound 0.316 µM) 6.38% | viability, T/C (second compound 0.00949 µM, first compound 1 µM) 3.73% | viability, T/C (second compound 0.03 µM, first compound 0.01 µM) 6.08% | viability, T/C (second compound 0.03 µM, first compound 0.0316 µM) 4.75% | viability, T/C (second compound 0.03 µM, first compound 0.1 µM) 5.13% | viability, T/C (second compound 0.03 µM, first compound 0.316 µM) 5.14% | viability, T/C (second compound 0.03 µM, first compound 1 µM) 3.58% | viability, T/C (second compound 0.0949 µM, first compound 0.01 µM) 7.64% | viability, T/C (second compound 0.0949 µM, first compound 0.0316 µM) 4.68% | viability, T/C (second compound 0.0949 µM, first compound 0.1 µM) 4.96% | viability, T/C (second compound 0.0949 µM, first compound 0.316 µM) 5.01% | viability, T/C (second compound 0.0949 µM, first compound 1 µM) 4.01% | viability, T/C (second compound 0.3 µM, first compound 0.01 µM) 6.52% | viability, T/C (second compound 0.3 µM, first compound 0.0316 µM) 4.44% | viability, T/C (second compound 0.3 µM, first compound 0.1 µM) 4.51% | viability, T/C (second compound 0.3 µM, first compound 0.316 µM) 5.17% | viability, T/C (second compound 0.3 µM, first compound 1 µM) 3.99%
< 3.16 nM: IC50 (second compound 0.000949 µM) | IC50 (second compound 0.003 µM) | IC50 (second compound 0.00949 µM) | IC50 (second compound 0.03 µM) | IC50 (second compound 0.0949 µM) | IC50 (second compound 0.3 µM)

CC1(C)CCC(Nc2ncc(C(F)(F)F)c(-c3c[nH]c4c(P(C)(C)=O)c(C#N)ccc34)n2)CN1 (stereo unspecified) + C=CC(=O)N1CCN(c2nc(OCC3CCCN3C)nc3c(F)c(-c4nc(N)cc(C)c4C(F)(F)F)c(Cl)cc23)C(C)C1
inactive: viability, T/C (second compound 0.00316 µM, first compound 0.000949 µM) 57.1% | viability, T/C (second compound 0.00316 µM, first compound 0.003 µM) 27.2% | viability, T/C (second compound 0.00316 µM, first compound 0.00949 µM) 15.7% | viability, T/C (second compound 0.00316 µM, first compound 0.03 µM) 9.16% | viability, T/C (second compound 0.01 µM, first compound 0.000949 µM) 56.4% | viability, T/C (second compound 0.01 µM, first compound 0.003 µM) 24.6% | viability, T/C (second compound 0.01 µM, first compound 0.00949 µM) 16.1% | viability, T/C (second compound 0.01 µM, first compound 0.03 µM) 9.39% | viability, T/C (second compound 0.0316 µM, first compound 0.000949 µM) 44% | viability, T/C (second compound 0.0316 µM, first compound 0.003 µM) 23.3% | viability, T/C (second compound 0.0316 µM, first compound 0.00949 µM) 18.3% | viability, T/C (second compound 0.0316 µM, first compound 0.03 µM) 11.6% | viability, T/C (second compound 0.0316 µM, first compound 0.0949 µM) 11.7% | viability, T/C (second compound 0.1 µM, first compound 0.000949 µM) 53.1% | viability, T/C (second compound 0.1 µM, first compound 0.003 µM) 25.3% | viability, T/C (second compound 0.1 µM, first compound 0.00949 µM) 12.4% | viability, T/C (second compound 0.1 µM, first compound 0.03 µM) 14.6% | viability, T/C (second compound 0.1 µM, first compound 0.0949 µM) 13.2% | viability, T/C (second compound 0.1 µM, first compound 0.3 µM) 8.82% | viability, T/C (second compound 0.316 µM, first compound 0.000949 µM) 54.9% | viability, T/C (second compound 0.316 µM, first compound 0.003 µM) 29.1% | viability, T/C (second compound 0.316 µM, first compound 0.00949 µM) 14.6% | viability, T/C (second compound 0.316 µM, first compound 0.03 µM) 12.8% | viability, T/C (second compound 0.316 µM, first compound 0.0949 µM) 13.3% | viability, T/C (second compound 0.316 µM, first compound 0.3 µM) 9.31% | viability, T/C (second compound 1 µM, first compound 0.000949 µM) 58.9% | viability, T/C (second compound 1 µM, first compound 0.003 µM) 24.2% | viability, T/C (second compound 1 µM, first compound 0.00949 µM) 15.7% | viability, T/C (second compound 1 µM, first compound 0.03 µM) 14.2% | viability, T/C (second compound 1 µM, first compound 0.0949 µM) 10.3% | viability, T/C (second compound 1 µM, first compound 0.3 µM) 7.97%
1.07 nM: IC50 (second compound 0.1 µM)
1.19 nM: IC50 (second compound 0.01 µM)
< 0.949 nM: IC50 (second compound 0.0316 µM)
1.27 nM: IC50 (second compound 1 µM)
1.25 nM: IC50 (second compound 0.00316 µM)
active: viability, T/C (second compound 0.00316 µM, first compound 0.0949 µM) 9.76% | viability, T/C (second compound 0.00316 µM, first compound 0.3 µM) 8.19% | viability, T/C (second compound 0.01 µM, first compound 0.0949 µM) 12.1% | viability, T/C (second compound 0.01 µM, first compound 0.3 µM) 7.38% | viability, T/C (second compound 0.0316 µM, first compound 0.3 µM) 8.91%
1.16 nM: IC50 (second compound 0.316 µM)
